In patent EP0750618B1, “OXAZOLIDINONE DERIVATIVES AND PHARMACEUTICAL COMPOSITIONS CONTAINING THEM” (priority 1994, dated 1995):
≈ marks a conversion by molar mass, not a printed value. Like-named read-outs stand apart in the source and are kept apart here.

Assays:
Experiment in all cases: MIC test, standard agar dilution method
[1] = tested on: Staphylococcus epidermidis (UC 12084); type: cell-based; details: UC12084, incubated overnight at 35°C, read-out: Minimum Inhibitory Concentrations (MIC) S. enidermidis
Staphylococcus aureus = tested on: Staphylococcus aureus
[2] = tested on: Streptococcus pyogenes (UC 152); details: UC152, read-out: Minimum Inhibitory Concentrations (MIC) S. pyogenes
[3] = UC9213, read-out: Minimum Inhibitory Concentrations (MIC) S. aureus

Structure (SMILES)	MIC [1] [µg/mL]	MIC (Staphylococcus aureus; UC9218, read-out: Minimum Inhibitory Concentrations (MIC) S. aureus) [µg/mL]	MIC [2] [µg/mL]	MIC (Staphylococcus aureus; [3]) [µg/mL]
CC(=O)NC[C@H]1CN(c2ccc(N3CCCCC3)c(F)c2)C(=O)O1 [Compound No. 2, (S)-N-[3-(3-fluoro-4-piperidin-1-yl-phenyl)-2-oxo-oxazolidin-5-ylmethyl]-acetamide]	1 (≈ 2.98 µM)	8 (≈ 23.9 µM)	4 (≈ 11.9 µM)	
CC(=O)NC[C@H]1CN(c2ccc(N3CCC(CO)CC3)c(F)c2)C(=O)O1 [Compound No. 4, (S)-N-{3-[3-fluoro-4-(4-hydroxymethyl-piperidin-1-yl)-phenyl]-2-oxo-oxazolidin-5-ylmethyl}-acetamide]	2 (≈ 5.47 µM)		2 (≈ 5.47 µM)	8 (≈ 21.9 µM)
CC(=O)NC[C@H]1CN(c2ccc(N3CCC(N)CC3)c(F)c2)C(=O)O1 [Compound No. 6, (S)-N-{3-[4-(4-amino-piperidin-1-yl)-3-fluoro-phenyl]-2-oxo-oxazolidin-5-ylmethyl}-acetamide]	32 (≈ 91.3 µM)		1 (≈ 2.85 µM)	> 64
CON=C1CCN(c2ccc(N3C[C@H](CNC(C)=O)OC3=O)cc2F)CC1 [Compound No. 29, (S)-N-{3-[3-fluoro-4-(4-methoxyimino-piperidin-1-yl)-phenyl]-2-oxo-oxazolidin-5-ylmethyl}-acetamide]	1 (≈ 2.64 µM)		4 (≈ 10.6 µM)	4 (≈ 10.6 µM)
CC(=O)NC[C@H]1CN(c2ccc(N3CCC(CC4(C)OCCO4)CC3)c(F)c2)C(=O)O1 [Compound No. 32, (S)-N-(3-{3-fluoro-4-[4-(2-methyl-[1,3]dioxolan-2-ylmethyl)-piperidin-1-yl]-phenyl}-2-oxo-oxazolidin-5-ylmethyl)-acetamide]	4 (≈ 9.18 µM)		4 (≈ 9.18 µM)	16 (≈ 36.7 µM)
COC(=O)[C@H]1CN(c2ccc(N3CC(CNC(C)=O)OC3=O)cc2F)CCC1=O (stereo partly drawn) [Compound No. 34, (S)-1-{4-[5-(acetylamino-methyl)-2-oxo-oxazolidin-3-yl]-2-fluoro-phenyl}-4-oxo-piperidin-3-carboxylic acid methyl ester]	4 (≈ 9.82 µM)		4 (≈ 9.82 µM)	16 (≈ 39.3 µM)
CC(=O)NC[C@H]1CN(c2ccc(N3CCC(C4(C)OCCO4)CC3)c(F)c2)C(=O)O1 [Compound No. 35, (S)-N-(3-{3-fluoro-4-[4-(2-methyl-[1,3]dioxolan-2-yl)-piperidin-1-yl]-phenyl}-2-oxo-oxazolidin-5-ylmethyl)-acetamide]	2 (≈ 4.75 µM)		2 (≈ 4.75 µM)	8 (≈ 19 µM)
CC(=O)NC[C@H]1CN(c2ccc(N3CCC(=O)C(CO)C3)c(F)c2)C(=O)O1 (stereo partly drawn) [Compound No. 37, (S)-N-{3-[3-fluoro-4-(3-hydroxymethyl-4-oxo-piperidin-1-yl)-phenyl]-2-oxo-oxazolidin-5-ylmethyl}-acetamide]	2 (≈ 5.27 µM)		2 (≈ 5.27 µM)	8 (≈ 21.1 µM)
CC(=O)NC[C@H]1CN(c2ccc(N3CCC(C4(CO)OCCO4)CC3)c(F)c2)C(=O)O1 [Compound No. 44, (S)-N-(3-{3-fluoro-4-[4-(2-hydroxymethyl-[1,3]dioxolan-2-yl)-piperidin-1-yl]-phenyl}-2-oxo-oxazolidin-5-ylmethyl)-acetamide]	2 (≈ 4.57 µM)		24 (≈ 54.9 µM)	16 (≈ 36.6 µM)
CC(=O)NC[C@H]1CN(c2ccc(N3CCC4(CC3)OCC(CO)O4)c(F)c2)C(=O)O1 (stereo partly drawn) [Compound No. 52, (S)-N-{3-[3-fluoro-4-(2-hydroxymethyl-1,4-dioxa-8-aza-spiro[4.5]dec-8-yl)-phenyl]-2-oxo-oxazolidin-5-ylmethyl}-acetamide]	2 (≈ 4.72 µM)		4 (≈ 9.45 µM)	16 (≈ 37.8 µM)
CC(=O)NC[C@H]1CN(c2ccc(N3CCC4(CC3)OCCN4C(=O)CO)c(F)c2)C(=O)O1 [Compound No. 54, (S)-N-(3-{3-fluoro-4-[4-(2-hydroxy-acetyl)-1-oxa-4,8-diaza-spiro[4.5]dec-8-yl]-phenyl}-2-oxo-oxazolidin-5-ylmethyl)-acetamide]	4 (≈ 8.88 µM)		4 (≈ 8.88 µM)	16 (≈ 35.5 µM)
C=CCON=C1CCN(c2ccc(N3C[C@H](CNC(C)=O)OC3=O)cc2F)CC1 [Compound No. 58, (S)-N-{3-[4-(4-allyloxyimino-piperidin-1-yl)-3-fluoro-phenyl]-2-oxo-oxazolidin-5-ylmethyl}-acetamide]	1 (≈ 2.47 µM)		2 (≈ 4.95 µM)	8 (≈ 19.8 µM)
CONC1CCN(c2ccc(N3C[C@H](CNC(C)=O)OC3=O)cc2F)CC1 [Compound No. 59, (S)-N-{3-[3-fluoro-4-(4-methoxyamino-piperidin-1-yl)-phenyl]-2-oxo-oxazolidin-5-ylmethyl}-acetamide]	2 (≈ 5.26 µM)		4 (≈ 10.5 µM)	4 (≈ 10.5 µM)
CC(=O)NC[C@H]1CN(c2ccc(N3CCC(=NOCC(O)CO)CC3)c(F)c2)C(=O)O1 (stereo partly drawn) [Compound No. 62, (S)-N-(3-{4-[4-(2,3-dihydroxy-propoxyimino)-piperidin-1-yl]-3-fluorophenyl}-2-oxo-oxazolidin-5-ylmethyl)-acetamide]	1 (≈ 2.28 µM)		2 (≈ 4.56 µM)	8 (≈ 18.2 µM)
CC(=O)NC[C@H]1CN(c2ccc(N3CCC(Nc4nccs4)CC3)c(F)c2)C(=O)O1 [Compound No. 63, (S)-N-(3-{3-fluoro-4-[4-(thiazol-2-ylamino)-piperidin-1-yl]-phenyl}-2-oxo-oxazolidin-5-ylmethyl)-acetamide]	2 (≈ 4.61 µM)		2 (≈ 4.61 µM)	16 (≈ 36.9 µM)
CC(=O)NC[C@H]1CN(c2ccc(N3CCC(N(C)C)CC3)c(F)c2)C(=O)O1 [Compound No. 67, (S)-N-{3-[4-(4-dimethylamino-piperidin-1-yl)-3-fluoro-phenyl]-2-oxo-oxazolidin-5-ylmethyl}-acetamide]	2 (≈ 5.28 µM)		1 (≈ 2.64 µM)	32 (≈ 84.6 µM)
CN[C@H](CC(C)C)C(=O)N[C@H]1C(=O)N[C@@H](CC(N)=O)C(=O)N[C@H]2C(=O)N[C@H]3C(=O)N[C@H](C(=O)N[C@H](C(=O)O)c4cc(O)cc(O)c4-c4cc3ccc4O)[C@H](O)c3ccc(c(Cl)c3)Oc3cc2cc(c3O[C@@H]2O[C@H](CO)[C@@H](O)[C@H](O)[C@H]2O[C@H]2C[C@](C)(N)[C@H](O)[C@H](C)O2)Oc2ccc(cc2Cl)[C@H]1O [Vancomycin, reference compound]	2 (≈ 1.38 µM)		0.5 (≈ 0.345 µM)	1 (≈ 0.69 µM)
CC(=O)NC[C@H]1CN(c2ccc(N3CCC(NC(C)=O)CC3)c(F)c2)C(=O)O1 [compound 9, (S)-N-{3-[4-(4-acetylamino-piperidin-1-yl)-3-fluoro-phenyl]-2-oxo-oxazolidin-5-ylmethyl}-acetamide]	2 (≈ 5.1 µM)		4 (≈ 10.2 µM)	16 (≈ 40.8 µM)
CC(=O)NC[C@H]1CN(c2ccc(N3CCC(NC(=O)CO)CC3)c(F)c2)C(=O)O1 [compound 10, (S)-N-(1-{4-[5-(acetylamino-methyl)-2-oxo-oxazolidin-3-yl]-2-fluoro-phenyl}-piperidin-4-yl)-2-hydroxy-acetamide]	2 (≈ 4.9 µM)		2 (≈ 4.9 µM)	16 (≈ 39.2 µM)
COCOC1CCN(c2ccc(N3C[C@H](CNC(C)=O)OC3=O)cc2F)CC1 [compound 27, (S)-N-{3-[3-fluoro-4-(4-methoxymethoxy-piperidin-1-yl)-phenyl]-2-oxo-oxazolidin-5-ylmethyl}-acetamide]	2 (≈ 5.06 µM)		8 (≈ 20.2 µM)	8 (≈ 20.2 µM)
CC(=O)NC[C@H]1CN(c2ccc(N3CCC4(CC3)OCCO4)c(F)c2)C(=O)O1 [compound 28, (S)-N-{3-[4-(1,4-dioxa-8-aza-sprio[4.5]dec-8-yl)-3-fluoro-phenyl]-2-oxo-oxazolidin-5-ylmethyl}-acetamide]	2 (≈ 5.08 µM)		4 (≈ 10.2 µM)	8 (≈ 20.3 µM)
CC(=O)CC1CCN(c2ccc(N3C[C@H](CNC(C)=O)OC3=O)cc2F)CC1 [compound 33, (S)-N-(3-{3-fluoro-4-[4-(2-oxo-propyl)-piperidin-1-yl]-phenyl}-2-oxo-oxazolidin-5-ylmethyl)-acetamide]	2 (≈ 5.11 µM)		2 (≈ 5.11 µM)	8 (≈ 20.4 µM)
CC(=O)NC[C@H]1CN(c2ccc(N3CCC(C(C)=O)CC3)c(F)c2)C(=O)O1 [compound 36, (S)-N-{3-[4-(4-acetyl-piperidin-1-yl)-3-fluoro-phenyl]-2-oxo-oxazolidin-5-ylmethyl}-acetamide]	1 (≈ 2.65 µM)		2 (≈ 5.3 µM)	4 (≈ 10.6 µM)
COC(=O)ON=C1CCN(c2ccc(N3C[C@H](CNC(C)=O)OC3=O)cc2F)CC1 [compound 38, (S)-N-{3-[3-fluoro-4-(4-methoxycarbonyloxyimino-piperidin-1-yl)-phenyl]-2-oxo-oxazolidin-5-ylmethyl}-acetamide]	0.5 (≈ 1.18 µM)		1 (≈ 2.37 µM)	2 (≈ 4.73 µM)
CC(=O)NC[C@H]1CN(c2ccc(N3CCC(=NNC(N)=O)CC3)c(F)c2)C(=O)O1 [compound 39, (S)-N-{3-[3-fluoro-4-(4-semicarbazono-piperidin-1-yl)-phenyl]-2-oxo-oxazolidin-5-ylmethyl}-acetamide]	0.5 (≈ 1.23 µM)		2 (≈ 4.92 µM)	2 (≈ 4.92 µM)
CC(=O)NC[C@H]1CN(c2ccc(N3CCC(=NN4CCOCC4)CC3)c(F)c2)C(=O)O1 [compound 40, (S)-N-(3-{3-fluoro-4-[4-(morpholin-4-ylimino)-piperidin-1-yl]-phenyl}-2-oxo-oxazolidin-5-ylmethyl)-acetamide]	0.5 (≈ 1.15 µM)		2 (≈ 4.61 µM)	4 (≈ 9.23 µM)
CC(=O)NC[C@H]1CN(c2ccc(N3CCC(=NNCCO)CC3)c(F)c2)C(=O)O1 [compound 41, (S)-N-[3-(3-fluoro-4-{4-[(2-hydroxy-ethyl)-hydrazono]-piperidin-1-yl}-phenyl)-2-oxo-oxazolidin-5-ylmethyl]-acetamide]	0.5 (≈ 1.23 µM)		1 (≈ 2.45 µM)	4 (≈ 9.82 µM)
CC(=O)NC[C@H]1CN(c2ccc(N3CCC(=NNC(=N)N)CC3)c(F)c2)C(=O)O1 [compound 42, (S)-N-{3-[3-fluoro-4-(4-amidinohydrazono-piperidin-1-yl)-phenyl]-2-oxo-oxazolidin-5-ylmethyl}-acetamide]	2 (≈ 4.93 µM)		0.5 (≈ 1.23 µM)	8 (≈ 19.7 µM)
